Results as given in ChEMBL document CHEMBL1137410, “Using fragment cocktail crystallography to assist inhibitor design of Trypanosoma brucei nucleoside 2-deoxyribosyltransferase” (2006).

Tested on: Trypanosoma brucei brucei
Experiment: Inhibition of Trypanosoma brucei brucei growth
Format: functional
Conditions: read-out: ED50 (the source's name)

| EC50 [µM] | SMILES |
| --- | --- |
| 413 | Cn1c(=O)ccc2ccccc21 |
| 252 | Nc1cccc2cnccc12 |
| 1340 | CCc1ccccc1CO |
